ChEMBL document CHEMBL4304749, “Covalent Inhibitors of Protein-Protein Interactions Targeting Lysine, Tyrosine, or Histidine Residues” (J Med Chem, 2019)
pEC50, pIC50: −log10 of the molar value. Square brackets hold non-standard residues; d marks the D form. Peptide text beside a SMILES is read from it. Tyr(SO2F) = N[C@@H](Cc1ccc(OS(=O)(=O)F)cc1)C(=O)O; NMeA = CN[C@@H](C)C(=O)O

Assays:
[1] = Half-life of the compound at pH 7.2 by NMR spectroscopy; type: physicochemical
[2] = Half-life in 50 mM phosphate buffer of pH 7.5 at 37 degreeC by 1H NMR method; type: physicochemical; details: for half-life: phosphate buffer; for t1/2: buffer
[3] = Aqueous stability of the compound in simulated gastric fluid at pH 1.5 by NMR spectroscopy
[4] = Stability in mouse plasma at 200 uM by LC-MS method; type: ADME, cell-free
[5] = Half-life in mouse plasma at 200 uM by LC-MS method; type: ADME, cell-free
[6] = Drug degradation in mouse plasma at 200 uM after 40 min by LC-MS method; type: ADME, cell-free; details: read-out: Drug degradation
[7] = Aqueous stability of the compound pH 7.2 by NMR spectroscopy; type: physicochemical; details: buffer
[8] = target: T1, E3 ubiquitin-protein ligase XIAP (Homo sapiens, UniProt P98170)
[9] = target: T1, E3 ubiquitin-protein ligase XIAP; remark: listed apart in the source
SK-OV-3 [10] = assay: Induction of apoptosis in human SKOV3 cells assessed caspase-3 activation after 24 hrs by IncuCyte S3 live-cell analysis; type: functional, cell-based; details: SK-OV-3, 24 h
SK-OV-3 [11] = assay: Induction of apoptosis in human SKOV3 cells assessed caspase-3 activation after 48 hrs by IncuCyte S3 live-cell analysis; type: functional, cell-based; details: SK-OV-3, 48 h
[12] = target: T1, E3 ubiquitin-protein ligase XIAP; assay: biochemical
[13] = target: T1, E3 ubiquitin-protein ligase XIAP; assay: biochemical; remark: listed apart in the source

T1 sequence (P98170 whole entry): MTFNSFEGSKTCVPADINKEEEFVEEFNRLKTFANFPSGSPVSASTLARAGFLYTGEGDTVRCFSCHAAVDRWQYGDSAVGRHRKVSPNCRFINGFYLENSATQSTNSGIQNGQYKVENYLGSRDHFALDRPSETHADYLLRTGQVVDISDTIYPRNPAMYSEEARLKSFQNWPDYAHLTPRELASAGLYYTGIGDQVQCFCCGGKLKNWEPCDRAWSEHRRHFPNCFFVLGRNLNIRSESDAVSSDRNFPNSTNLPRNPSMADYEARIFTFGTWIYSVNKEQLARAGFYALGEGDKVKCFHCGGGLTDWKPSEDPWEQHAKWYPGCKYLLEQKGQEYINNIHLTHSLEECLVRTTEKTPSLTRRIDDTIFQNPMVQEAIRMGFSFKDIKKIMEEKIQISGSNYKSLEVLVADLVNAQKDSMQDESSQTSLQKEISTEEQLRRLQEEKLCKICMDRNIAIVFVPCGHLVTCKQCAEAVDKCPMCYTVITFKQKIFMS

For CN[C@@H](C)C(=O)N[C@@H](CNC(=O)c1ccc(S(=O)(=O)F)cc1)C(=O)N1CCC[C@H]1C(=O)N[C@@H](Cc1ccccc1)C(N)=O, the half-life [1] was 0.5 h, the half-life [2] was 0.5 h and the Stability [3] was “Stable”. For the same compound, the Stability [4] was “Unstable”.

With CN[C@@H](C)C(=O)N[C@@H](Cc1ccc(S(=O)(=O)O)cc1)C(=O)N1CCC[C@H]1C(=O)N[C@@H](Cc1ccccc1)C(N)=O the t1/2 [2] was > 5 h.

With CN[C@@H](C)C(=O)N[C@@H](Cc1ccc(OS(=O)(=O)F)cc1)C(=O)N1CCC[C@H]1C(=O)N[C@@H]1CCc2c(F)cccc21 the half-life at 200 µM [5] was > 2 h.

With CN[C@@H](C)C(=O)N[C@@H](CNCc1ccc(S(=O)(=O)F)cc1)C(=O)N1CCC[C@H]1C(=O)N[C@@H]1CCc2c(F)cccc21 the half-life at 200 µM [5] was 0.25 h and the metabolised at 40 min, 200 µM [6] was 100%.

In the case of CN[C@@H](C)C(=O)N[C@@H](CNCc1ccc(S(=O)(=O)F)cc1)C(=O)N1CCC[C@H]1C(=O)N[C@@H](Cc1ccccc1)C(N)=O, the half-life [2] was 2.5 h, the Stability [3] was “Stable” and the Stability [7] was “Stable”.

For CN[C@@H](C)C(=O)N[C@@H](Cc1ccc(OS(=O)(=O)F)cc1)C(=O)N1CCC[C@H]1C(=O)NC1Cc2ccccc2C1, the half-life at 200 µM [5] was > 2 h.

With CC(C)[C@H](NC(=O)[C@H](C)N)C(=O)N1CCC[C@H]1C(=O)N[C@@H](Cc1ccccc1)C(=O)O (H-AVPF-OH) the half-life [2] was > 5 h, the ΔTm [8] was 5.5 °C and the ΔTm [9] was 17 °C.

With CN[C@@H](C)C(=O)N[C@@H](Cc1ccc(OS(=O)(=O)F)cc1)C(=O)N1CCC[C@H]1C(=O)N[C@@H](Cc1ccccc1)C(N)=O (H-[NMeA][Tyr(SO2F)]PF-NH2) the t1/2 [2] was > 5 h, the Stability [3] was “Stable” and the Stability [7] was “Stable”.

Work on CN[C@@H](C)C(=O)N[C@H](C(=O)N1CCC[C@H]1C(=O)Nc1snnc1-c1ccccc1)C1CCCCC1 [GDC-0152] yielded a half-life at 200 µM [5] of 1 h, a pEC50 (SK-OV-3 [10]) of 8.52 and a pEC50 (SK-OV-3 [11]) of 8.60. For the same compound, the ΔTm [8] was 15 °C, the ΔTm [9] was 19.5 °C and the pIC50 [12] was 7.68. It also gave a pIC50 [13] of 7.68.

For CN[C@@H](C)C(=O)N[C@H](C(=O)N1CCC[C@H]1c1nc(C(=O)c2ccc(F)cc2)cs1)C1CCCCC1 [LCL-161], the half-life at 200 µM [5] was > 2 h, the pEC50 (SK-OV-3 [10]) was 8.52 and the pEC50 (SK-OV-3 [11]) was 9.00.
